# Results reported in patent US9504729B2, “Antiangiogenic small molecules and methods of use” (The United States of America, as represented by the …, priority 2009, dated 2016).
# Key:
# FGFR1 = FGFR1 (Homo sapiens, UniProt P11362); assay: SelectScreen kinase activity profiling, FGFR1; type: biochemical; parameters: concentration or dose not given beside the values; conditions: for Mean % Inhibition: mean of two independent trials
# Source text: (§1) To characterize the RTK inhibitory activity of the antiangiogenic SMs described herein, 36 compounds were chosen and screened using Invitrogen's SelectScreen® kinase activity profiling service (described on-line at tools.invitrogen.com/content.cfm?pageid=10413#selection). VEGFR1 and FGFR2 RTK inhibitory activities were studied. […] Overall, a small minority of the SMs tested had any substantial kinase inhibitory activity. This observation supports a mechanism of antiangiogenic action other than RTK inhibition for most of the SMs described herein.
# KDR(VEGFR2) = KDR(VEGFR2) (Homo sapiens, UniProt P35968); assay: SelectScreen kinase activity profiling, KDR(VEGFR2); type: biochemical; parameters: % Inhibition / Mean % Inhibition: concentration or dose not given beside the values; conditions: KDR(VEGFR2); for Mean % Inhibition: mean of two independent trials
# Source text: as §1
# [1] = first of two independent trials
# [2] = second of two independent trials
# Sequence of FGFR1 (P11362 398-822 limits assumed): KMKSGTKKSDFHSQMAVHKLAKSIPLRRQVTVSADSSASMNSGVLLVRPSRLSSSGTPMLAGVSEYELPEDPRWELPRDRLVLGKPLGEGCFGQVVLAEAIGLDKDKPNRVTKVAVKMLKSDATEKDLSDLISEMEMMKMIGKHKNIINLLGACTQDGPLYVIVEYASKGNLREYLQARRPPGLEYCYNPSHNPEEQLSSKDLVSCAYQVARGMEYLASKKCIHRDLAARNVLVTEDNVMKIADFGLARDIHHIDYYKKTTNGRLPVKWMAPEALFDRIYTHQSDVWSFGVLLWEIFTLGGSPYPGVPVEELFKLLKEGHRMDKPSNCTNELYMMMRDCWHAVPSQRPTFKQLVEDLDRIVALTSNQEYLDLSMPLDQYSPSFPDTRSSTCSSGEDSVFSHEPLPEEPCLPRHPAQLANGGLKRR
# Sequence of KDR(VEGFR2) (P35968 20-1356): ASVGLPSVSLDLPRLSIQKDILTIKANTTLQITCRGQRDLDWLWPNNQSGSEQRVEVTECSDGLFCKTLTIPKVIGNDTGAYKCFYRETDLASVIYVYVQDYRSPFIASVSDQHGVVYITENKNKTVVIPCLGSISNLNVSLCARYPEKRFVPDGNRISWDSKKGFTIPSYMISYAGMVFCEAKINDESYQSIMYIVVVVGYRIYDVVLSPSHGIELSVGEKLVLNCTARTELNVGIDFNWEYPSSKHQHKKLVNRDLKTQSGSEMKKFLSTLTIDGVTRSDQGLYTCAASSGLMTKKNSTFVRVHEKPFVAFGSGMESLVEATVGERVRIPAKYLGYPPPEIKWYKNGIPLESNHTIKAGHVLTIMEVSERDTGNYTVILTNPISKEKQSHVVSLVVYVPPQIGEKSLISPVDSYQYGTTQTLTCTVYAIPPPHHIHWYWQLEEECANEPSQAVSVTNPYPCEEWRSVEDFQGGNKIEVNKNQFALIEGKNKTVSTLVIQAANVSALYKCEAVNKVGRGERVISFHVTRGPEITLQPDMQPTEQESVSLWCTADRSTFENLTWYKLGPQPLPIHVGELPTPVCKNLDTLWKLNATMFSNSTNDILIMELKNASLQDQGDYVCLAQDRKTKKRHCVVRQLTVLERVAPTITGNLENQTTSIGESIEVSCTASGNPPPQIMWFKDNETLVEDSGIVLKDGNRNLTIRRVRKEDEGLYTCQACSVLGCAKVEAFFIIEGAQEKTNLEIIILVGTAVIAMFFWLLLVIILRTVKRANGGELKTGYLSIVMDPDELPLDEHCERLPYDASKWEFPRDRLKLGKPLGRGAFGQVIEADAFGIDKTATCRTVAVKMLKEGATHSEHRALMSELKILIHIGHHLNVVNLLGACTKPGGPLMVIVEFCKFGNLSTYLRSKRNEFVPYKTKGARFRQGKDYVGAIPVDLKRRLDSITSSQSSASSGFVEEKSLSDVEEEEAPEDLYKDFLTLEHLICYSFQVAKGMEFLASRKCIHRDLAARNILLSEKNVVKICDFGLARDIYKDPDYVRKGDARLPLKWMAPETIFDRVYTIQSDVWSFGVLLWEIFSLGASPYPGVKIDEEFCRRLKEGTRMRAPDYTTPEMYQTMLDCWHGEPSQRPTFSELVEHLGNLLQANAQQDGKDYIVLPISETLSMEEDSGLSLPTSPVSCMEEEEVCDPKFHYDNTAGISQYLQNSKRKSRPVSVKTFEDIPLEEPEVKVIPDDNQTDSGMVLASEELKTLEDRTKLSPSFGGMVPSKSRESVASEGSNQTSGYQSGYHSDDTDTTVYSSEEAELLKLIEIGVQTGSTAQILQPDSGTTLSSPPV
SMILES,% Inhibition (FGFR1; [1]),Mean % Inhibition (FGFR1),% Inhibition (FGFR1; [2]),% Inhibition (KDR(VEGFR2); [1]),Mean % Inhibition (KDR(VEGFR2)),% Inhibition (KDR(VEGFR2); [2])
CCC(=O)OCN1C(=O)C=CC1=O [compound 19630],2%,0%,−2%,90%,90%,91%
O=C1C(=Cc2ccccc2)C(NC2CCCCC2)c2ccccc21 (stereo not drawn) [compound 150117],2%,5%,7%,28%,26%,24%
COc1ccc(CC2C(=O)NC(C)C(=O)N(C)C3Cc4ccc(cc4)Oc4cc(ccc4O)CC(C(=O)NC(C)C(=O)NC(C)C(=O)N2C)N(C)C3=O)cc1 (stereo not drawn) [compound 259969],3%,3%,3%,0%,5%,9%
COc1cc2cc(c1Cl)N(C)C(=O)CC(OC(=O)C(C)C)C1(C)OC1C(C)C1CC(O)(NC(=O)O1)C(OC)/C=C/C=C(\C)C2 (stereo not drawn) [compound 292222],2%,3%,5%,8%,7%,7%
CC1CCN(CC[S-])CC1.O.O.[Cl][Pt+] [compound 292596],4%,4%,4%,9%,14%,18%
